Laboratory results published in US20260364215A1, “Radiopharmaceutical Compositions Targeting Ephrin Type-A Receptor 2 and Uses Thereof” (PeptiDream Inc., priority 2022, published 2026).
Where two headings read alike, the source gives them in different places. Numbered stars: 1 amine (or outer) side, 2 acyl side, 3 side chain; on linkers, the order of the positions; unused ones are H or OH. Bridge positions count the residues as written; N and C are the ends. Square brackets hold non-standard residues; d marks the D form. Side chains are listed from the residue outwards. Peptide text beside a SMILES is read from it. * marks the point of attachment. DOTA(Lu) = O=C1CN2CCN3CCN(CC(=O)*)CCN(CC2)CC(=O)[O][Lu]([O]1)[O]C(=O)C3; NH(1-deoxy-D-glucityl) = OC[C@@H](O)[C@@H](O)[C@H](O)[C@@H](O)CN*; DOTA = O=C(O)CN1CCN(CC(=O)O)CCN(CC(=O)*)CCN(CC(=O)O)CC1; Trp(1-Me,7-Cl) = Cn1cc(C[C@H](N)C(=O)O)c2cccc(Cl)c21; dPhe(3-CONH2) = NC(=O)c1cccc(C[C@@H](N)C(=O)O)c1; Piperazinyl(4-CH2COOH) = O=C(O)CN1CCN(*)CC1; Trp(1-Me) = Cn1cc(C[C@H](N)C(=O)O)c2ccccc21; PEG8 = NCCOCCOCCOCCOCCOCCOCCOCCOCCC(=O)O; NMe3Pal = CN[C@@H](Cc1cccnc1)C(=O)O; NMeF = CN[C@@H](Cc1ccccc1)C(=O)O; hCit = NC(=O)NCCCC[C@H](N)C(=O)O; Gly(cBu) = N[C@H](C(=O)O)C1CCC1; NMeE = CN[C@@H](CCC(=O)O)C(=O)O; Aad = N[C@@H](CCCC(=O)O)C(=O)O; NMeN = CN[C@@H](CC(N)=O)C(=O)O; PEG2 = NCCOCCOCCC(=O)O; CO = O=C([*:1])[*:2]; βAla = NCCC(=O)O

Molecular target: T1, Recombinant Human EphA2 Fc Protein (Homo sapiens, UniProt P29317)
T1 construct: purchased Elabscience
Experiment: Interaction analysis (kinetics, KD) of peptides and conjugates against EphA2 by SPR, Biacore T200, single-cycle kinetics (Examples B15 and B22)
Type: binding
Description: Example B15. Interaction Analysis by SPR was Performed Using Biacore (Cytiva)
SPR assay was performed using Biacore T200 (Cytiva).
The HBS-P+ buffer (10 mM HEPES (pH7.4), 150 mM NaCl, 0.05% (v/v) Surfactant P20) containing 1% DMSO was used as running buffer. Recombinant Human EphA2 Fc Protein (Fc tag, Elabscience) was captured by Human Antibody Capture kit (Cytiva). Peptide samples in DMSO were diluted with running buffer, and prepared five serial dilutions. Using these serial dilutions, kinetics of peptides against EphA2 was measured at a flow rate of […] at 25 °C. The method adopted for sample measurement was a single-cycle kinetics method. The analysis was conducted using the evaluation software 3.0 provided with Biacore T200. Kinetics fitting was done on the difference data obtained by subtracting the baseline data from sample measurement data. KD values were calculated based on the association rate constant (ka) and dissociation rate constant (kd).
Example B22: Interaction Analysis of Conjugates by SPR was Performed Using Biacore (Cytiva)
SPR assay was performed using Biacore T200 (Cytiva) according to Example B15.

[1] = conjugates, Biacore T200 according to Example B15, Table B16, read-out: SPR Kd
[2] = peptides, Biacore T200, 25 °C, Table B12, read-out: SPR Kd

T1 sequence (P29317 24-534 limits assumed): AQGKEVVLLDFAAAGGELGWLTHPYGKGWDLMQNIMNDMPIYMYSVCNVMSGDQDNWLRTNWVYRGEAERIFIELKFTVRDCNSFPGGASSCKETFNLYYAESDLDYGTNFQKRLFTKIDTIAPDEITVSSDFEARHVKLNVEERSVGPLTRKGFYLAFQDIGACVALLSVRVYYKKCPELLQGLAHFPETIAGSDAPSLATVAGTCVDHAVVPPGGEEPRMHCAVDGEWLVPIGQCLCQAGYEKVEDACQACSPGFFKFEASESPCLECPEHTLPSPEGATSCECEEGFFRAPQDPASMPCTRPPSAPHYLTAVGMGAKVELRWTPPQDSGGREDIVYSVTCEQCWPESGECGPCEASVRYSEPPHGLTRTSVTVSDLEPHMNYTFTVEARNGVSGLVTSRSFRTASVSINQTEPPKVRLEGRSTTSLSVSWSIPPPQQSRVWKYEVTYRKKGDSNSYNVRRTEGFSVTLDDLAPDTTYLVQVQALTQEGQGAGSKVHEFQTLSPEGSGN

| Structure (SMILES) | Kd [1] [nM] | further results |
| --- | --- | --- |
| CC(C)C[C@@H]1NC(=O)[C@H](CC(N)=O)NC(=O)[C@H](Cc2ccccc2)N(C)C(=O)[C@@H](C)NC(=O)CSC[C@@H](C(=O)NCCC(=O)N[C@H](CCCCNC(=O)CCOCCOCCNC(=O)CCOCCOCCOCCOCCOCCOCCOCCOCCNC(=O)CN2CCN(CC(=O)O)CCN(CC(=O)O)CCN(CC(=O)O)CC2)C(N)=O)NC(=O)[C@H](CCC(=O)O)NC(=O)[C@H]([C@@H](C)O)NC(=O)[C@H](Cc2cn(C)c3ccccc23)NC(=O)[C@H](C(C)C)NC(=O)[C@H](Cc2cn(C)c3ccccc23)NC(=O)[C@H](Cc2ccccc2)N(C)C(=O)[C@H](CCCC(=O)O)NC1=O.[Lu+3] [PDC_EphA2-00001417-C304] ({CH2CO}-[dA][NMeF]NL[Aad][NMeF][Trp(1-Me)]V[Trp(1-Me)]TEC[βAla][dK]([PEG2-PEG8-DOTA])-NH2; thioether N-12) | 1 to 10 |  |
| CC(C)C[C@@H]1NC(=O)[C@H](CC(N)=O)NC(=O)[C@H](Cc2cccnc2)N(C)C(=O)[C@@H](C)NC(=O)CSC[C@@H](C(=O)NCCC(=O)N[C@H](CCCCNC(=O)CCOCCOCCNC(=O)CCOCCOCCOCCOCCOCCOCCOCCOCCNC(=O)CN2CCN(CC(=O)O)CCN(CC(=O)O)CCN(CC(=O)O)CC2)C(N)=O)NC(=O)[C@H](CCCC(N)=O)NC(=O)[C@H]([C@@H](C)O)NC(=O)[C@H](Cc2cn(C)c3ccccc23)NC(=O)[C@H](CCCCNC(=O)N2CCN(CC(=O)O)CC2)NC(=O)[C@H](Cc2cn(C)c3ccccc23)NC(=O)[C@H](CCC(=O)O)N(C)C(=O)[C@H](CCCC(N)=O)NC1=O.[Lu+3] [PDC_EphA2-00007196-C304] ({CH2CO}-[dA][NMe3Pal]NL[Aad](NH2)[NMeE][Trp(1-Me)]K([CO-Piperazinyl(4-CH2COOH)])[Trp(1-Me)]T[Aad](NH2)C[βAla][dK]([PEG2-PEG8-DOTA])-NH2; thioether N-12) | < 1 |  |
| CC(C)C[C@@H]1NC(=O)[C@H](CC(N)=O)NC(=O)[C@H](Cc2cccnc2)N(C)C(=O)[C@@H](C)NC(=O)CSC[C@@H](C(=O)N[C@H](CCCCNC(=O)CN(C)C(=O)CN(C)C(=O)CN(C)C(=O)CN(C)C(=O)CN(C)C(=O)CN(C)C(=O)CN(C)C(=O)CN(C)C(=O)CN(C)C(=O)CN(C)C(=O)CCNC(=O)CN2CCN3CCN4CCN(CC2)CC(=O)[O][Lu]([O]C(=O)C3)[O]C(=O)C4)C(N)=O)NC(=O)[C@H](CCCC(N)=O)NC(=O)[C@H]([C@@H](C)O)NC(=O)[C@H](Cc2cn(C)c3ccccc23)NC(=O)[C@H](CCCCNC(=O)N2CCN(CC(=O)O)CC2)NC(=O)[C@H](Cc2cn(C)c3ccccc23)NC(=O)C(CCC(=O)O)N(C)C(=O)[C@H](CCCC(N)=O)NC1=O (some centres unmarked) [PDC_EphA2-00007196-C310] |  | Kd: < 1 nM |
| CC(=O)NCCCC[C@@H](NC(=O)CCNC(=O)[C@@H]1CSCC(=O)N[C@H](C)C(=O)N(C)[C@@H](Cc2cccnc2)C(=O)N[C@@H](CC(N)=O)C(=O)N[C@@H](CC(C)C)C(=O)N[C@@H](CCCC(=O)O)C(=O)N(C)[C@@H](Cc2ccccc2)C(=O)N[C@@H](Cc2cn(C)c3ccccc23)C(=O)N[C@@H](C(C)C)C(=O)N[C@@H](Cc2cn(C)c3ccccc23)C(=O)N[C@@H]([C@@H](C)O)C(=O)N[C@@H](CCC(=O)O)C(=O)N1)C(N)=O [PDC_EphA2-00008083] ({CH2CO}-[dA][NMe3Pal]NL[Aad][NMeF][Trp(1-Me)]V[Trp(1-Me)]TEC[βAla][dK](Ac)-NH2; thioether N-12) |  | Kd [2]: < 1 nM |
| CC(C)C[C@@H]1NC(=O)[C@H](CC(N)=O)NC(=O)[C@H](Cc2cccnc2)N(C)C(=O)[C@@H](C)NC(=O)CSC[C@@H](C(=O)NCCC(=O)N[C@H](CCCCNC(=O)CCOCCOCCNC(=O)CCOCCOCCOCCOCCOCCOCCOCCOCCNC(=O)CN2CCN(CC(=O)O)CCN(CC(=O)O)CCN(CC(=O)O)CC2)C(N)=O)NC(=O)[C@H](CCCC(N)=O)NC(=O)[C@H]([C@@H](C)O)NC(=O)[C@H](Cc2cn(C)c3ccccc23)NC(=O)[C@H](CCCCNC(=O)N2CCN(CC(=O)O)CC2)NC(=O)[C@H](Cc2cn(C)c3ccccc23)NC(=O)[C@H](Cc2ccccc2)N(C)C(=O)[C@H](CCCC(N)=O)NC1=O.[Lu+3] [PDC_EphA2-00008093-C304] ({CH2CO}-[dA][NMe3Pal]NL[Aad](NH2)[NMeF][Trp(1-Me)]K([CO-Piperazinyl(4-CH2COOH)])[Trp(1-Me)]T[Aad](NH2)C[βAla][dK]([PEG2-PEG8-DOTA])-NH2; thioether N-12) | < 1 |  |
| CC(C)C[C@@H]1NC(=O)[C@H](CC(N)=O)NC(=O)[C@H](Cc2cccnc2)N(C)C(=O)[C@@H](C)NC(=O)CSC[C@@H](C(=O)NCCC(=O)N[C@H](CCCCNC(=O)CCOCCOCCNC(=O)CCOCCOCCOCCOCCOCCOCCOCCOCCNC(=O)CN2CCN(CC(=O)O)CCN(CC(=O)O)CCN(CC(=O)O)CC2)C(N)=O)NC(=O)[C@H](CCCC(N)=O)NC(=O)[C@H]([C@@H](C)O)NC(=O)[C@H](Cc2cn(C)c3ccccc23)NC(=O)[C@H](CCCCNC(=O)N2CCN(CC(=O)O)CC2)NC(=O)[C@H](Cc2cn(C)c3ccccc23)NC(=O)[C@H](CCC(=O)O)N(C)C(=O)[C@H](CCCC(=O)O)NC1=O.[Lu+3] [PDC_EphA2-00008094-C304] ({CH2CO}-[dA][NMe3Pal]NL[Aad][NMeE][Trp(1-Me)]K([CO-Piperazinyl(4-CH2COOH)])[Trp(1-Me)]T[Aad](NH2)C[βAla][dK]([PEG2-PEG8-DOTA])-NH2; thioether N-12) | < 1 |  |
| C[C@H]1NC(=O)CSC[C@@H](C(=O)N[C@H](CCCCNC(=O)CN2CCN(CC(=O)O)CCN(CC(=O)O)CCN(CC(=O)O)CC2)C(N)=O)NC(=O)[C@H](CCCC(N)=O)NC(=O)[C@H]([C@@H](C)O)NC(=O)[C@H](Cc2cn(C)c3ccccc23)NC(=O)[C@H](CCC(=O)NC[C@H](O)[C@@H](O)[C@H](O)[C@H](O)CO)NC(=O)[C@H](Cc2cn(C)c3ccccc23)NC(=O)[C@H](CC(N)=O)N(C)C(=O)[C@H](CCCC(N)=O)NC(=O)[C@H](C2CCC2)NC(=O)[C@H](CC(N)=O)NC(=O)[C@H](Cc2ccccc2)N(C)C1=O.[Lu+3] [PDC_EphA2-00013703-C302] ({CH2CO}-[dA][NMeF]N[Gly(cBu)][Aad](NH2)[NMeN][Trp(1-Me)]E(NH(1-deoxy-D-glucityl))[Trp(1-Me)]T[Aad](NH2)C[dK](DOTA)-NH2; thioether N-12) | < 1 |  |
| C[C@H]1NC(=O)CSC[C@@H](C(=O)N[C@H](CCCCNC(=O)CN2CCN3CCN4CCN(CC2)CC(=O)[O][Lu]([O]C(=O)C3)[O]C(=O)C4)C(N)=O)NC(=O)[C@H](CCCC(N)=O)NC(=O)[C@H]([C@@H](C)O)NC(=O)[C@H](Cc2cn(C)c3ccccc23)NC(=O)[C@H](CCC(=O)NC[C@H](O)[C@@H](O)[C@H](O)[C@H](O)CO)NC(=O)[C@H](Cc2cn(C)c3ccccc23)NC(=O)[C@H](Cc2cccnc2)N(C)C(=O)[C@H](CCCC(N)=O)NC(=O)[C@H](C2CCC2)NC(=O)[C@H](CC(N)=O)NC(=O)[C@H](Cc2ccccc2)N(C)C1=O [PDC_EphA2-00013704-C302] ({CH2CO}-[dA][NMeF]N[Gly(cBu)][Aad](NH2)[NMe3Pal][Trp(1-Me)]E(NH(1-deoxy-D-glucityl))[Trp(1-Me)]T[Aad](NH2)C[dK](DOTA(Lu))-NH2; thioether N-12) |  | Kd: < 1 nM |
| C[C@H]1NC(=O)CSC[C@@H](C(=O)N[C@H](CCCCNC(=O)CN2CCN3CCN4CCN(CC2)CC(=O)[O][Lu]([O]C(=O)C3)[O]C(=O)C4)C(N)=O)NC(=O)[C@H](CCCC(N)=O)NC(=O)[C@H]([C@@H](C)O)NC(=O)[C@H](Cc2cn(C)c3ccccc23)NC(=O)[C@H](CCC(=O)NC[C@H](O)[C@@H](O)[C@H](O)[C@H](O)CO)NC(=O)[C@H](Cc2cn(C)c3ccccc23)NC(=O)[C@H](Cc2cccnc2)N(C)C(=O)[C@H](CCCC(N)=O)NC(=O)[C@H](C2CCC2)NC(=O)[C@H](CC(N)=O)NC(=O)[C@H](Cc2cccnc2)N(C)C1=O [PDC_EphA2-00013705-C302] ({CH2CO}-[dA][NMe3Pal]N[Gly(cBu)][Aad](NH2)[NMe3Pal][Trp(1-Me)]E(NH(1-deoxy-D-glucityl))[Trp(1-Me)]T[Aad](NH2)C[dK](DOTA(Lu))-NH2; thioether N-12) |  | Kd: < 1 nM |
| C[C@@H](O)[C@@H]1NC(=O)[C@H](Cc2cn(C)c3ccccc23)NC(=O)[C@H](CCCCNC(N)=O)NC(=O)[C@H](Cc2cn(C)c3c(Cl)cccc23)NC(=O)[C@H](CC(N)=O)N(C)C(=O)[C@H](CCCC(N)=O)NC(=O)[C@H](C2CCC2)NC(=O)[C@H](CC(N)=O)NC(=O)[C@H](Cc2ccccc2)N(C)C(=O)[C@@H](Cc2cccc(C(N)=O)c2)NC(=O)CSC[C@@H](C(N)=O)NC(=O)[C@H](CCCC(N)=O)NC1=O [PDC_EphA2-00019426] ({CH2CO}-[dPhe(3-CONH2)][NMeF]N[Gly(cBu)][Aad](NH2)[NMeN][Trp(1-Me,7-Cl)][hCit][Trp(1-Me)]T[Aad](NH2)C-NH2; thioether N-12) |  | Kd [2]: < 1 nM |
| C[C@@H](O)[C@@H]1NC(=O)[C@H](Cc2cn(C)c3ccccc23)NC(=O)[C@H](CCC(=O)NC[C@H](O)[C@@H](O)[C@H](O)[C@H](O)CO)NC(=O)[C@H](Cc2cn(C)c3c(Cl)cccc23)NC(=O)[C@H](Cc2cccnc2)N(C)C(=O)[C@H](CCCC(N)=O)NC(=O)[C@H](C2CCC2)NC(=O)[C@H](CC(N)=O)NC(=O)[C@H](Cc2cccnc2)N(C)C(=O)[C@@H](Cc2cccc(C(N)=O)c2)NC(=O)CSC[C@@H](C(=O)N[C@H](CCCCNC(=O)CN2CCN(CC(=O)O)CCN(CC(=O)O)CCN(CC(=O)O)CC2)C(N)=O)NC(=O)[C@H](CCCC(N)=O)NC1=O.[Lu+3] [PDC_EphA2-00019437-C302] ({CH2CO}-[dPhe(3-CONH2)][NMe3Pal]N[Gly(cBu)][Aad](NH2)[NMe3Pal][Trp(1-Me,7-Cl)]E(NH(1-deoxy-D-glucityl))[Trp(1-Me)]T[Aad](NH2)C[dK](DOTA)-NH2; thioether N-12) | < 1 |  |
